Measured values published in PMC5218480 (PLoS ONE, 2017).

Test system: MV-4-11 cells
Test: Gene expression microarray analysis (Affymetrix PrimeView) and GSEA
Assay type: cell-based, human
Set-up: RFU PODN (11730768_x_at) / Fold change /veh PODN (11730768_x_at) / RFU LINC00158 (11744669_a_at) / Fold change /veh LINC00158 (11744669_a_at) / RFU DUSP10 (11751237_a_at) / Fold change /veh DUSP10 (11751237_a_at) / RFU ID3 (11757404_x_at) / Fold change /veh ID3 (11757404_x_at) / RFU PLEKHG5 (11737974_s_at) / Fold change /veh PLEKHG5 (11737974_s_at) / RFU LRRC4B (11730491_at) / Fold change /veh LRRC4B (11730491_at) / RFU GIMAP4 (11747438_a_at) / Fold change /veh GIMAP4 (11747438_a_at) / RFU KRT8 (11758183_x_at) / Fold change /veh KRT8 (11758183_x_at) / RFU CNN1 (11734310_a_at) / Fold change /veh CNN1 (11734310_a_at) / RFU VPS37D (11726825_at) / Fold change /veh VPS37D (11726825_at) / RFU C10orf10 (11716522_x_at) / Fold change /veh C10orf10 (11716522_x_at) / RFU KIR2DL2 /// KIR2DL4 /// KIR2DL5A /// KIR2DL5B /// KIR2DS1 /// KIR2DS2 /// KIR2DS3 /// KIR2DS4 /// KIR3DL3 /// KIR3DL3 /// KIR3DS1 (11738374_at) / Fold change /veh KIR2DL2 /// KIR2DL4 /// KIR2DL5A /// KIR2DL5B /// KIR2DS1 /// KIR2DS2 /// KIR2DS3 /// KIR2DS4 /// KIR3DL3 /// KIR3DL3 /// KIR3DS1 (11738374_at) / RFU C1QL1 (11718748_at) / Fold change /veh C1QL1 (11718748_at) / RFU TMPRSS4 (11747572_a_at) / Fold change /veh TMPRSS4 (11747572_a_at) / RFU HAMP (11756126_x_at) / Fold change /veh HAMP (11756126_x_at) / RFU RNFT2 (11725882_a_at) / Fold change /veh RNFT2 (11725882_a_at) / RFU NR4A2 (11747474_a_at) / Fold change /veh NR4A2 (11747474_a_at) / RFU ABCC12 (11746883_a_at) / Fold change /veh ABCC12 (11746883_a_at) / RFU TMEM136 (11760407_x_at) / Fold change /veh TMEM136 (11760407_x_at) / RFU CLDN22 /// WWC2 (11732394_at) / Fold change /veh CLDN22 /// WWC2 (11732394_at) / RFU HLA-DPB1 (11760878_x_at) / Fold change /veh HLA-DPB1 (11760878_x_at) / RFU SPINT1 (11716480_a_at) / Fold change /veh SPINT1 (11716480_a_at) / RFU GAP43 (11754022_s_at) / Fold change /veh GAP43 (11754022_s_at) / RFU A4GNT (11735810_at) / Fold change /veh A4GNT (11735810_at) / RFU PRB3 (11715151_x_at) / Fold change /veh PRB3 (11715151_x_at) / RFU TUBB4B (11761932_at) / Fold change /veh TUBB4B (11761932_at) / RFU CAPN14 (11732068_a_at) / Fold change /veh CAPN14 (11732068_a_at) / RFU TMCC2 (11721928_a_at) / Fold change /veh TMCC2 (11721928_a_at) / RFU IRGQ (11745062_a_at) / Fold change /veh IRGQ (11745062_a_at) / RFU FAM174B (11720279_a_at) / Fold change /veh FAM174B (11720279_a_at) / RFU TMPRSS4 (11748680_a_at) / Fold change /veh TMPRSS4 (11748680_a_at) / RFU FAM212B (11763350_a_at) / Fold change /veh FAM212B (11763350_a_at) / RFU PLEKHG5 (11743358_a_at) / Fold change /veh PLEKHG5 (11743358_a_at) / RFU ZSCAN30 (11745921_a_at) / Fold change /veh ZSCAN30 (11745921_a_at) / RFU CMKLR1 (11741424_a_at) / Fold change /veh CMKLR1 (11741424_a_at) / RFU LOC101060620 /// MAPK8IP1 (11723275_at) / Fold change /veh LOC101060620 /// MAPK8IP1 (11723275_at) / RFU SPTSSB (11747773_x_at) / Fold change /veh SPTSSB (11747773_x_at) / RFU PRSS12 (11739890_at) / Fold change /veh PRSS12 (11739890_at) / RFU BIN1 (11741810_x_at) / Fold change /veh BIN1 (11741810_x_at) / RFU WNT11 (11732464_a_at) / Fold change /veh WNT11 (11732464_a_at) / RFU C10orf10 (11716521_a_at) / Fold change /veh C10orf10 (11716521_a_at) / RFU C5orf56 (11738089_at) / Fold change /veh C5orf56 (11738089_at) / RFU CYB561 (11721691_x_at) / Fold change /veh CYB561 (11721691_x_at) / RFU ANKRD19P (11752326_a_at) / Fold change /veh ANKRD19P (11752326_a_at) / RFU OR2T12 /// OR2T33 /// OR2T8 (11738714_s_at) / Fold change /veh OR2T12 /// OR2T33 /// OR2T8 (11738714_s_at) / RFU VCAN (11748164_a_at) / Fold change /veh VCAN (11748164_a_at) / RFU JSRP1 (11732532_at) / Fold change /veh JSRP1 (11732532_at) / RFU KRTAP10-11 (11738290_x_at) / Fold change /veh KRTAP10-11 (11738290_x_at) / RFU MYO3A (11730013_a_at) / Fold change /veh MYO3A (11730013_a_at) / RFU EBF3 (11725865_a_at) / Fold change /veh EBF3 (11725865_a_at) / RFU CAMK2N1 (11719241_x_at) / Fold change /veh CAMK2N1 (11719241_x_at) / RFU C5orf56 (11738088_a_at) / Fold change /veh C5orf56 (11738088_a_at) / RFU OLFML3 (11715873_a_at) / Fold change /veh OLFML3 (11715873_a_at) / RFU LOC100653217 /// NTM (11731650_a_at) / Fold change /veh LOC100653217 /// NTM (11731650_a_at) / RFU MAPK11 (11762145_a_at) / Fold change /veh MAPK11 (11762145_a_at) / RFU FIZ1 (11724087_x_at) / Fold change /veh FIZ1 (11724087_x_at) / RFU OASL (11726364_x_at) / Fold change /veh OASL (11726364_x_at) / RFU SOX15 (11748057_x_at) / Fold change /veh SOX15 (11748057_x_at) / RFU CD79A (11719716_a_at) / Fold change /veh CD79A (11719716_a_at) / RFU HIST1H1D (11736915_at) / Fold change /veh HIST1H1D (11736915_at) / RFU CASKIN2 (11723855_a_at) / Fold change /veh CASKIN2 (11723855_a_at) / RFU LOC730098 (11760151_x_at) / Fold change /veh LOC730098 (11760151_x_at) / RFU OR4N2 (11742367_at) / Fold change /veh OR4N2 (11742367_at) / RFU PRRT2 (11749266_a_at) / Fold change /veh PRRT2 (11749266_a_at) / RFU SNX32 (11753110_a_at) / Fold change /veh SNX32 (11753110_a_at) / RFU CDHR5 (11726645_a_at) / Fold change /veh CDHR5 (11726645_a_at) / RFU RCAN1 (11760418_a_at) / Fold change /veh RCAN1 (11760418_a_at) / RFU FAM167A (11723789_a_at) / Fold change /veh FAM167A (11723789_a_at) / RFU FAM26E (11764081_at) / Fold change /veh FAM26E (11764081_at) / RFU ISYNA1 (11749810_s_at) / Fold change /veh ISYNA1 (11749810_s_at) / RFU ACY1 (11761880_at) / Fold change /veh ACY1 (11761880_at) / RFU 11764098_at / Fold change /veh 11764098_at / RFU SAMD14 (11745864_x_at) / Fold change /veh SAMD14 (11745864_x_at) / RFU NPB (11741838_a_at) / Fold change /veh NPB (11741838_a_at) / RFU TMPRSS6 (11731388_a_at) / Fold change /veh TMPRSS6 (11731388_a_at) / RFU KRTAP10-2 (11738614_at) / Fold change /veh KRTAP10-2 (11738614_at) / RFU ARHGAP8 /// PRR5-ARHGAP8 (11727945_x_at) / Fold change /veh ARHGAP8 /// PRR5-ARHGAP8 (11727945_x_at) / RFU KRTAP5-7 /// NADSYN1 (11734609_at) / Fold change /veh KRTAP5-7 /// NADSYN1 (11734609_at) / RFU RASL12 (11751679_a_at) / Fold change /veh RASL12 (11751679_a_at) / RFU CDKN2B (11736163_a_at) / Fold change /veh CDKN2B (11736163_a_at) / RFU PRF1 (11729649_at) / Fold change /veh PRF1 (11729649_at) / RFU, ZNF638 /// ZNF638-IT1 / Fold change vs veh, ZNF638 /// ZNF638-IT1 / RFU, PANK3 / Fold change vs veh, PANK3 / RFU, SH3YL1 / Fold change vs veh, SH3YL1 / RFU, ZEB2 / Fold change vs veh, ZEB2 / RFU, NRIP1 / Fold change vs veh, NRIP1 / RFU, PTTG1IP / Fold change vs veh, PTTG1IP / RFU, CAPN2 / Fold change vs veh, CAPN2 / RFU, MED14 / Fold change vs veh, MED14 / RFU, SNORA58 / Fold change vs veh, SNORA58 / RFU, C1orf63 / Fold change vs veh, C1orf63 / RFU, LRRFIP1 / Fold change vs veh, LRRFIP1 / RFU, NDUFAF7 / Fold change vs veh, NDUFAF7 / RFU, SLC12A2 / Fold change vs veh, SLC12A2 / RFU, IBTK / Fold change vs veh, IBTK / RFU, ESF1 / Fold change vs veh, ESF1 / Fold change vs veh, TMEM50B / RFU, TAOK1 / Fold change vs veh, TAOK1 / RFU, ACBD3 / Fold change vs veh, ACBD3 / RFU, TMA16 / Fold change vs veh, TMA16 / RFU, RWDD3 / Fold change vs veh, RWDD3 / RFU, BCAT1 / Fold change vs veh, BCAT1 / RFU, EDEM3 / Fold change vs veh, EDEM3 / RFU, TMEM33 / Fold change vs veh, TMEM33 / RFU, WDR75 / Fold change vs veh, WDR75 / RFU, AHCTF1 / Fold change vs veh, AHCTF1 / RFU, TFRC / Fold change vs veh, TFRC / RFU, ZDHHC17 / Fold change vs veh, ZDHHC17 / RFU, NOM1 / Fold change vs veh, NOM1 / RFU, ARL8B / Fold change vs veh, ARL8B / RFU, ZBTB11 / Fold change vs veh, ZBTB11 / RFU, TAMM41 / Fold change vs veh, TAMM41 / RFU, KIAA1704 /// LOC100996395 / Fold change vs veh, KIAA1704 /// LOC100996395 / RFU, ING1 / Fold change vs veh, ING1 / RFU, TRMT61B / Fold change vs veh, TRMT61B / RFU, FUBP3 / Fold change vs veh, FUBP3 / RFU, TP53 / Fold change vs veh, TP53 / RFU, TNKS2 / Fold change vs veh, TNKS2 / RFU, ZFP14 / Fold change vs veh, ZFP14 / RFU, ACTR2 / Fold change vs veh, ACTR2 / RFU, PPP3R1 / Fold change vs veh, PPP3R1 / RFU, PIK3R1 / Fold change vs veh, PIK3R1 / RFU, HNRNPA1 / Fold change vs veh, HNRNPA1 / RFU, RNF170 / Fold change vs veh, RNF170 / RFU, ZNF28 / Fold change vs veh, ZNF28 / RFU, RNGTT / Fold change vs veh, RNGTT / RFU, OGT / Fold change vs veh, OGT / RFU, BRD1 / Fold change vs veh, BRD1 / RFU, MARS / Fold change vs veh, MARS / RFU, ZNF655 / Fold change vs veh, ZNF655 / RFU, FAHD1 / Fold change vs veh, FAHD1 / RFU, BDP1 / Fold change vs veh, BDP1 / RFU, LRRCC1 / Fold change vs veh, LRRCC1 / RFU, ARID1A / Fold change vs veh, ARID1A / RFU, ZNF146 / Fold change vs veh, ZNF146 / RFU, ZNF330 / Fold change vs veh, ZNF330 / RFU, GPN3 / Fold change vs veh, GPN3 / RFU, C9orf123 / Fold change vs veh, C9orf123 / RFU, N4BP2L2 / Fold change vs veh, N4BP2L2 / RFU, ARFIP1 / Fold change vs veh, ARFIP1 / RFU, FAM179B / Fold change vs veh, FAM179B / RFU, BCL10 / Fold change vs veh, BCL10 / RFU, UHRF1BP1L / Fold change vs veh, UHRF1BP1L / RFU, BET1 / Fold change vs veh, BET1 / RFU, CNOT2 / Fold change vs veh, CNOT2 / RFU, ZNF268 / Fold change vs veh, ZNF268 / Fold change vs veh, ZNF507 / RFU, DGCR2 / Fold change vs veh, DGCR2 / RFU, WDSUB1 / Fold change vs veh, WDSUB1 / Fold change vs veh, HSP90B1 /// MIR3652 / RFU, ADSS / Fold change vs veh, ADSS / RFU, GK / Fold change vs veh, GK / RFU, ZNF148 / Fold change vs veh, ZNF148 / RFU, TAF9 / Fold change vs veh, TAF9 / RFU, SLC1A5 / Fold change vs veh, SLC1A5 / RFU, SLMO2 / Fold change vs veh, SLMO2 / RFU, ABCC4 / Fold change vs veh, ABCC4 / RFU, LOC101060439 /// RAP1B / Fold change vs veh, LOC101060439 /// RAP1B / RFU, RFX7 / Fold change vs veh, RFX7 / RFU, GTPBP10 / Fold change vs veh, GTPBP10 / RFU, CNEP1R1 / Fold change vs veh, CNEP1R1 / RFU, BIVM-ERCC5 /// ERCC5 / Fold change vs veh, BIVM-ERCC5 /// ERCC5 / RFU, ILF3 / Fold change vs veh, ILF3 / RFU 11762660_at / Fold change /veh 11762660_at / RFU VCAN (11757783_s_at) / Fold change /veh VCAN (11757783_s_at) / RFU DDX43 (11728927_at) / Fold change /veh DDX43 (11728927_at) / RFU KRT8 (11758188_x_at) / Fold change /veh KRT8 (11758188_x_at) / RFU NKD1 (11759106_at) / Fold change /veh NKD1 (11759106_at) / RFU SRD5A1 (11742802_a_at) / Fold change /veh SRD5A1 (11742802_a_at) / RFU TPSAB1 /// TPSB2 (11721975_s_at) / Fold change /veh TPSAB1 /// TPSB2 (11721975_s_at) / RFU GSTM3 (11746129_a_at) / Fold change /veh GSTM3 (11746129_a_at) / RFU IL23R (11737362_x_at) / Fold change /veh IL23R (11737362_x_at) / RFU TMEM51 (11727254_a_at) / Fold change /veh TMEM51 (11727254_a_at) / RFU PIWIL2 (11732686_x_at) / Fold change /veh PIWIL2 (11732686_x_at) / RFU ORM1 (11744905_x_at) / Fold change /veh ORM1 (11744905_x_at) / RFU CCDC152 (11743942_at) / Fold change /veh CCDC152 (11743942_at) / RFU ECM1 (11717891_a_at) / Fold change /veh ECM1 (11717891_a_at) / RFU IL23R (11748794_a_at) / Fold change /veh IL23R (11748794_a_at) / RFU TNFAIP8L3 (11732012_x_at) / Fold change /veh TNFAIP8L3 (11732012_x_at) / RFU MBOAT4 (11741988_at) / Fold change /veh MBOAT4 (11741988_at) / RFU 11764193_at / Fold change /veh 11764193_at / RFU TMEM53 (11763286_at) / Fold change /veh TMEM53 (11763286_at) / RFU MAGEB2 (11727129_at) / Fold change /veh MAGEB2 (11727129_at) / RFU TMEM200A (11744735_a_at) / Fold change /veh TMEM200A (11744735_a_at) / RFU CCDC152 (11751479_a_at) / Fold change /veh CCDC152 (11751479_a_at) / RFU FAM211A (11726209_a_at) / Fold change /veh FAM211A (11726209_a_at) / RFU RGS16 (11746705_a_at) / Fold change /veh RGS16 (11746705_a_at) / RFU VCAN (11755009_s_at) / Fold change /veh VCAN (11755009_s_at) / RFU RHOB (11743442_s_at) / Fold change /veh RHOB (11743442_s_at) / RFU RGS16 (11720943_a_at) / Fold change /veh RGS16 (11720943_a_at) / RFU RGS16 (11720944_at) / Fold change /veh RGS16 (11720944_at) / RFU, VPS4B / Fold change vs veh, VPS4B / RFU, CREB1 / Fold change vs veh, CREB1 / RFU, DNAJC13 / Fold change vs veh, DNAJC13 / RFU, GNAQ / Fold change vs veh, GNAQ / RFU, CDK5R1 / Fold change vs veh, CDK5R1 / RFU, ZRANB3 / Fold change vs veh, ZRANB3 / RFU, CUL4A / Fold change vs veh, CUL4A / RFU, CCNY / Fold change vs veh, CCNY / RFU, UFL1 / Fold change vs veh, UFL1 / RFU, COG3 / Fold change vs veh, COG3 / RFU, DIAPH2 / Fold change vs veh, DIAPH2 / RFU, SKA2 / Fold change vs veh, SKA2 / RFU, AFF3 / Fold change vs veh, AFF3 / RFU, LMF1 / Fold change vs veh, LMF1 / RFU, IPO11 / Fold change vs veh, IPO11 / RFU, DFFB / Fold change vs veh, DFFB / RFU, FOXP1 / Fold change vs veh, FOXP1 / RFU, CARD8 / Fold change vs veh, CARD8 / RFU, STRN3 / Fold change vs veh, STRN3 / RFU, ADK / Fold change vs veh, ADK / RFU, RASSF2 / Fold change vs veh, RASSF2 / RFU, WIPF1 / Fold change vs veh, WIPF1 / RFU, LARP1B / Fold change vs veh, LARP1B / RFU, RASA1 / Fold change vs veh, RASA1 / RFU, RB1 / Fold change vs veh, RB1 / RFU, PPFIA1 / Fold change vs veh, PPFIA1 / RFU, MAT2A / Fold change vs veh, MAT2A / RFU, CCT5 / Fold change vs veh, CCT5 / RFU, WDR92 / Fold change vs veh, WDR92 / RFU, CUX1 / Fold change vs veh, CUX1 / RFU, TTC7A / Fold change vs veh, TTC7A / RFU, TMEM135 / Fold change vs veh, TMEM135 / RFU, DEPTOR / Fold change vs veh, DEPTOR / RFU, CPM / Fold change vs veh, CPM / RFU, DNAJB6 / Fold change vs veh, DNAJB6 / RFU, CACNA2D3 / Fold change vs veh, CACNA2D3 / RFU, DTX4 / Fold change vs veh, DTX4 / RFU, TFCP2 / Fold change vs veh, TFCP2 / RFU, GMCL1 /// GMCL1P1 / Fold change vs veh, GMCL1 /// GMCL1P1 / RFU, AEBP2 / Fold change vs veh, AEBP2 / RFU, SNHG1 /// SNORD22 /// SNORD25 /// SNORD26 /// SNORD27 /// SNORD28 /// SNORD29 /// SNORD31 / Fold change vs veh, SNHG1 /// SNORD22 /// SNORD25 /// SNORD26 /// SNORD27 /// SNORD28 /// SNORD29 /// SNORD31 / Fold change (Aza/veh), C12orf56 (ProbeSet 11735607_a_at) / Fold change (ACY-1035/veh), C12orf56 (ProbeSet 11735607_a_at) / Fold change (Aza/veh), FGFR1OP (ProbeSet 11751329_s_at) / Fold change (ACY-1035/veh), FGFR1OP (ProbeSet 11751329_s_at) / Fold change (Aza/veh), VPS36 (ProbeSet 11739960_a_at) / Fold change (ACY-1035/veh), VPS36 (ProbeSet 11739960_a_at) / RFU SYPL1 (11715823_x_at) / Fold change /veh SYPL1 (11715823_x_at) / RFU IGFBP7 (11715501_s_at) / Fold change /veh IGFBP7 (11715501_s_at) / RFU REEP3 (11722064_at) / Fold change /veh REEP3 (11722064_at) / RFU IGLL1 (11728026_x_at) / Fold change /veh IGLL1 (11728026_x_at): dose or concentration left out as unconfirmed
Conditions: MV-4-11 cells, 48 hours

Nc1ncn([C@@H]2O[C@H](CO)[C@@H](O)[C@H]2O)c(=O)n1 [azacitidine]
RFU VPS37D (11726825_at): 18.02 RFU
